Assay results: patent publication US20040055025A1, “Immune response replication in cloned animals” (Infigen, Inc., priority 2002, published 2004)
Entries after “also recorded” stand apart in the source; their conditions may differ.

Columns and labels:
[1] = system: recipients; assay: Transfer of NT blastocysts from lovastatin-treated bovine cells into recipients: pregnancy outcome; assay type: in vivo
Protocol: After blastomere-oocyte fusion, the cybrids from second generation NT were cultured in CR2 media supplemented with BSA (3 mg/ml) under humidified air with 5% CO2 at 39° C. On the third day of culture, developing embryos were evaluated and cultured further until day seven in CR2 media containing 10% FCS. Morphologically good to fair quality embryos were non-surgically transferred into recipient females.
Similar results were obtained using statin-treated bovine cells in nuclear transfer procedures. […] One or two blastocysts were non-surgically transferred into 5 recipients of which two became pregnant (Table 3).

[2] = system: estrus synchronized ewes; assay: Transfer of NT blastocysts from lovastatin-treated ovine cells into recipient ewes: pregnancy outcome
[3] = system: ear cells derived from a newborn cloned calf (C188/Firstdown-FB000); assay: Nuclear transfer with lovastatin-treated bovine ear cells: in vitro embryo development; assay type: cell-based; conditions: for Emb. Devel. (% Blastocyst): NT embryos from ear cells treated with lovastatin for 24 hours, day 7 of culture
Protocol: Mycoplasma free totipotent cells used in the NT procedure, were prepared by cutting out a group of cells from the culture dish using a glass needle. The cells were then incubated in a TL HEPES solution containing from 1 to 3 mg/ml pronase E at approximately 32° C. for 15-60 minutes, the amount of time which was needed in this example to disaggregate the cells. Once the cells were in a single cell suspension they were used for NT within a 2-3 hour period.
Oocytes aspirated from ovaries were matured overnight (16 hours) in maturation medium. Medium 199 (Biowhittaker, Cat #12-119F) supplemented with luteinizing hormone 10 IU/ml (LH; Sigma, Cat #L9773), […] (Sigma, Cat #E8875) and 10% FCS or estrus cow serum, was used. Within 16-17 hours of maturation, the cumulus layer expanded and the first polar bodies were extruded.
In the first NT procedure, young oocytes (16-17 hours in maturation medium) were stripped of their cumulus cell layers and nuclear material stained with Hoechst 33342 5 mg/ml (Sigma, Cat #2261) in TL HEPES solution supplemented with cytochalasin B (7 μg/ml, Sigma, Cat #C6762) for 15 min. Oocytes were then enucleated in TL HEPES solution under mineral oil. A single cell of optimal size (12 to 15 μm) was then selected from a cell suspension and injected into the perivitelline space of the enucleated oocyte. The cell and oocyte membranes were then induced to fuse by electrofusion in a 500 μm chamber by application of an electrical pulse of 90V for 15 μs.
Cybrid activation was induced by a 4 min exposure to 5 μM calcium ionophore A23187 (Sigma Cat. #C-7522) or ionomycin Ca-salt in HECM (hamster embryo culture medium) containing 1 mg/ml BSA followed by a 1:1000 dilution in HECM containing 30 mg/ml BSA for 5 min. For HECM medium, See, e.g., Seshagiri & Barister, 1989, “Phosphate is required for inhibition of glucose of development of hamster eight-cell embryos in vitro,” Biol. Reprod. 40: 599-606. […]

[4] = system: ear cells (SA01-FB) used as nuclear donors; assay: Nuclear transfer with lovastatin-treated ovine ear cells: in vitro embryo development; assay type: cell-based, sheep; conditions: NT embryos from SA01-FB ear cells treated with 5 μM lovastatin for 24 hours; per day of NT
Protocol: Oocytes were aspirated from sheep ovaries obtained from an abattoir and recovered in TL HEPES medium (Biowhittaker 04-616F) containing 10 mg/ml Heparin (Sigma H-3393) and 4 mg/ml BSA (Sigma A-6003). Aspirations were performed using 20 GA needles with the vacuum set at 60 mm Hg.
Two maturation media were used to produce nuclear transfer pregnancies. Maturation Medium 1: TC199 (Gibco 11150-059), 2 mM Glutamine (Sigma G-5763), 10% FBS (Hyclone A-111D), 5 mg/ml ovine FSH (Sigma L-8174), 5 mg/ml ovine LH (Sigma L-5269), 1 mg/ml Estradiol (Sigma E-2257), 0.3 mM Na-pyruvate (Sigma P-4562), and […] (Sigma M-9768). Maturation Medium 3: TC199 (Gibco 11150-059), 10% FBS (Hyclone A-111D), 10 mg/ml ovine FSH (Sigma L-8174), 10 mg/ml ovine LH (Sigma L-5269), 1 mg/ml Estradiol (Sigma E-2257) and […] (Sigma M-9768).
Typically, oocytes were stripped of cumulus cells after 17 hours in maturation medium by vortexing in 0.5 ml of TL-HEPES. The chromatin was stained with Hoechst 33342 (5 mg/ml, Sigma) in TL-HEPES solution for 15 minutes. Oocytes were then enucleated in TL-HEPES with or without calcium.
All nuclear transfers were performed in TL HEPES containing calcium regardless of what enucleation medium was used. […]

Structure (SMILES): CC[C@H](C)C(=O)O[C@H]1C[C@@H](C)C=C2C=C[C@H](C)[C@H](CC[C@@H]3C[C@@H](O)CC(=O)O3)[C@H]21 [lovastatin]
- Number of recipients that became pregnant ([1]; of 5 recipients given one or two blastocysts): two
- Outcome of pregnancies ([1]; two pregnancies from lovastatin treated bovine cells): One pregnancy aborted by day 32; also recorded: produced a live calf
- Status (of recipient after embryo transfer) ([2]; NT blastocysts from lovastatin treated SA01-FB cells transferred into ewe, listed as L0): open and Lambed
- Farrowed/Aborted ([2]; Pregnancy Two, SA01-FB00 lovastatin treated, 4 Day 7 blastocysts transferred, recipient #56): farrowed
- Emb. Devel. (% Blastocyst) [3]: 19%
- Emb. Devel. (% Blastocyst) ([3]; listed as LOVASTATIN): 19%
- Number of blastocysts produced by day 7 of culture ([3]; lovastatin treated cells used in NT on two different days): 6
- # of Bl. (blastocysts, day 7) [4]: one and four
